Tests used:
[1] = test system: CD8+ TILs; experiment: Flow cytometry of tumor-infiltrating CD8+ T cells from treated mice; type: in vivo
Description: All analysis was performed using FlowJo version 11 software.

[2] = test system: B16 tumors; experiment: s.c. B16 melanoma tumor model in mice; type: in vivo
[3] = test system: tumor-MDSC; experiment: Ex vivo suppression assay: tumor-MDSC co-cultured with primed CFSE-labeled T cells; type: cell-based, mice
Description: CD3^+ T cells were enriched using mouse or human T cell negative selection kits (MagniSort, Invitrogen) from the spleen and lymph nodes of C57BL/6 mice; or from purchased human buffy-coat units (One-Blood, Tampa, Fla.). Purity ranged between 95% and 99% as tested by flow cytometry. For antigen-specific priming studies, CD8^+ T cells were enriched using negative selection kits from the spleens of OT-I mice previously activated with OVA257-264 (SIINFEKL) for 48 hours. Tumor-MDSC were isolated from cellular suspensions of digested tumors followed by positive selection (MojoSort Streptavidin Nanobeads, Biolegend) using anti-Gr1 (Clone RB6-8C5, eBioscience) or anti-CD11b-biotinylated antibodies (Clone M1/70, StemCell Technologies, Vancouver). Also, M-MDSC (CD11b^+Gr1^+Ly6G^lowLy6C^high), PMN-MDSC (CD11b^+Gr1^+Ly6G^+Ly6C^low), macrophages (CD11b^+Gr1^negF4/80^+CD11c^neg), and myeloid DCs (CD11b^+Gr1^negF4/80^negCD11c^+) were sorted from tumors in a FACSAriaII (BD Biosciences).
(§1) Murine BM-MDSC (ratio 1:1/8) or tumor-MDSC (ratio 1:1/4) were co-cultured with negatively selected CD3^+ T cells in a 96 well plate bound α-CD3 and α-CD28 (1 μg/ml each, eBioscience) for 3 days. T cell proliferation was assessed with Carboxyfluorescein succinimidyl ester (CFSE) or Cell-trace violet (Invitrogen) dye dilution detected by flow cytometry. For human studies, MDSC were co-cultured with enriched CD3^+ T cells activated with soluble α-CD3 (1 μg/ml, clone OKT3) and α-CD28 (0.5 μg/ml, clone L293) for 3 days in a 96 well plate bound with goat anti-mouse IgG (10 μg/ml). Results are expressed as percentage of proliferating T cells, determined by the dilution of fluorescence compared with non-stimulated T cells.

[4] = Blood glucose and pancreatic islets in B16-bearing mice; type: in vivo; settings: B16-bearing mice treated for a week; GSK2606414 25 mg/kg or AMG-44 12 mg/kg; day 17
From the text: Hematoxylin and Eosin (H&E) stained slides were scanned in an Aperio AT2 whole slide scanner (Leica Biosystems Inc.) equipped with a 20×0.7NA objective lens Images were created at 0.5 micron per pixel resolution and imported into Definiens Tissue Studio software v4.7 (Definiens AG) for analysis. Islets were found using a semi-automated segmentation process. First an automatic segmentation was applied to the image to create contour lines around objects within the image. Objects that contained islets were classified as such and remaining objects were classified as non-islet tissue. Next, adjacent objects of the same classification were merged together to clean up the segmentation. Segmented images were analyzed to provide the total area of islets Immunofluorescence for mouse insulin in pancreas tissue sections was performed as we described (Sultan et al., 2017). Labeled samples were scanned with a Zeiss Imager Z2 Upright FL microscope with a 10× objective lens using the tile scan function. Images were created at a
0.65 micron per pixel resolution and imported into the Definiens Tissue Studio software v4.7 (Definiens AG) for islet detection and analysis. Islets were detected using a semi-automated segmentation process. First, an automatic segmentation was applied to the image to detect the tissue. Then, the software was trained to detect islet vs. non-islet tissue within the image. In order to remove false detected islets caused by background staining, detected islets larger than 150,000 square microns and less than 600 square microns were reclassified to non-islet tissue. Segmented images were then analyzed to provide the fluorescent intensity of islets and total tissue area.

[5] = cited from earlier work
[6] = test system: murine BM-MDSC; experiment: In vitro suppression assay with murine BM-MDSC; type: cell-based, mouse; settings: for potential of Thaps-treated Eif2ak3^KO-Tek BM-MDSC to impair T cell proliferation: 3 hours pre-treatment, Resveratrol 100 μM or D,L-Sulphoraphane 20 μM
Description: (§2) Mouse BM-MDSC were generated after culturing BM precursors with GM-CSF and G-CSF (20 ng/ml each) for 4 days. In vitro generated MDSC were treated with either LLC tumor explant supernatants (TES, since day 0) or Thaps (200 nM, for the last 24 hours of culture). Human BM-MDSC were developed after culturing BM or peripheral blood precursors from healthy donors with GM-CSF and IL-6 (10 ng/ml each) for a period of 6 days (Thevenot et al., 2014). To induce UPR activation, MDSC were treated with either supernatants from renal cell carcinoma cells 786-0 (hTES) for 6 days (Rodriguez et al., 2009) or Thaps during the last 24 hours before collection (200 nM). In some experiments, MDSC were pre-incubated for 3 hours with Resveratrol (100 μM, Sigma-Aldrich), D,L-Sulphoraphane (20 μM), AMG-44 (5 μM), or TUDCA (500 nM) before treating with Thaps.
as §1

[7] = test system: tumor-MDSC; settings: tumor-bearing Eif2ak3^KO-Lyz2 mice treated with SFRN vs untreated or Eif2ak3^Flox
Description: Oxygen consumption rate (OCR) through mitochondrial stress test and extracellular acidification rate (ECAR) by glycolysis stress profile were measured using a XF96 extracellular flux analyzer (Seahorse Bioscience). MDSC were plated onto CellTak pre-coated wells (1×10^5 cells/well in triplicate), and subjected to mitochondrial stress and glycolysis stress protocols using specific non-buffered XF base mediums. For OCR, cells were analyzed under basal conditions and in response to 2 μM oligomycin, 2 μM fluorocarbonyl-cyanide-phenylhydrazone (FCCP), and 0.5 μM rotenone. For ECAR, cells were plated in XF media lacking glucose and monitored under basal conditions and in response to 10 mM glucose, 10 μM oligomycin, and 100 mM 2-Deoxy-D-glucose (2-DG). Final values were obtained after protein normalization among the conditions.

[8] = test system: Ifnβ1 mRNA; experiment: Quantitative PCR of Ifnβ1 mRNA in MDSC; type: cell-based; settings: mice treated with SFRN vs untreated PERK-null mice
Description: Total RNA was isolated from MDSC using TRIzol (Life Technologies). Reverse transcription was performed using Verso cDNA Synthesis Kit (Thermo Scientific). Quantitative PCR reactions were prepared by using Bio-Rad SYBR green master mix and performed on an Applied Biosystems thermocycler (7900 HT) using primers described in Key Resources Table

[9] = test system: tumor-MDSC; settings: LLC-bearing mice treated with SFRN
Description: For surface staining, cells were labelled with the appropriate antibodies in the presence of Fc blocker. For intracellular staining, surface-labeled cells were fixed with Cytofix/Cytoperm™ Solution (BD Biosciences), washed in Perm/Wash™ 1× solution, and labelled with intracellular antibodies. Cells were then washed in Perm/Wash™ 1× and PBS. Live vs. dead cell discrimination was performed prior to antibody labeling by Zombie Fixable Viability dye (Biolegend). Ex vivo intracellular staining for IL-12 and TNFα was performed on isolated cells after stimulation for 6 hours with LPS (1 μg/ml, Sigma Aldrich) in the presence of Golgi stop (0.8 μl/ml, BD Biosciences). For IFNγ staining, cells were incubated for 5 hours with phorbol myristate acetate (PMA, 750 ng/mL, Sigma Aldrich) and ionomycin (50 μg/mL, Sigma-Aldrich) in the presence and Golgi stop (0.8 μl/ml). For ER-tracker and Mitotracker staining, cells were probed with 100 nM of ER tracker green or 200 nM of Mitotracker green (Invitrogen) and then stained for surface markers. For Mitochondrial membrane potential, cells were stained with JC-1 flow cytometry assay kit (Cayman chemicals) followed by surface markers staining. ROS were detected by DCFDA (10 μM) or Dihydroethidium (DHE, 10 μM). Data acquisition was performed in a CytoFLEX II (Beckman Coulter) or LSRII (BD Biosciences). All analysis was performed using FlowJo version 11 software.

[10] = test system: LLC tumors; experiment: s.c. LLC tumor model in mice; type: in vivo
[11] = test system: Arginase I; experiment: Immunoblot of Arginase I in tumor-MDSC; type: cell-based; settings: mice treated with TUDCA vs vehicle
From the text: (§3) Equal protein amounts of total and nuclear cell lysates were electrophoresed in 8 or 10% Tris-Glycine gels (Novex-Invitrogen), transferred to PVDF membranes by iBlot™ Gel Transfer Device (ThermoFisher), and blotted with the corresponding primary and secondary antibodies described in Key Resources Table. For nuclear fraction isolation, cells were lysed using NE-PER Nuclear and Cytoplasmic extraction kit (ThermoFisher). Membrane-bound immune complexes were detected by ChemiDoc™ Imaging System (Bio-Rad, #17001401).

[12] = test system: PERK; experiment: Immunoblot of PERK and phospho-PERK in MDSC; type: cell-based, mice
From the text: as §3

[13] = test system: human BM-MDSC; experiment: In vitro suppression assay with human BM-MDSC; type: cell-based
Description: as §2
Murine BM-MDSC (ratio 1:1/8) or tumor-MDSC (ratio 1:1/4) were co-cultured with negatively selected CD3^+ T cells in a 96 well plate bound α-CD3 and α-CD28 (1 μg/ml each, eBioscience) for 3 days. T cell proliferation was assessed with Carboxyfluorescein succinimidyl ester (CFSE) or Cell-trace violet (Invitrogen) dye dilution detected by flow cytometry. […] Results are expressed as percentage of proliferating T cells, determined by the dilution of fluorescence compared with non-stimulated T cells.

[14] = test system: IRE1α; experiment: Immunoblot of IRE1α and phospho-IRE1α in MDSC; type: cell-based, mice
From the text: as §3

[15] = test system: tumor-MDSC from Pan02-OVA-ZsGreen tumors; experiment: Cross-presentation by tumor-MDSC from Pan02-OVA-ZsGreen tumors; type: cell-based; settings: TUDCA-treated mice bearing Pan02-OVA-ZsGreen tumors
Description: For antigen loading experiments, MDSC were sorted from LLC tumors and then pulsed with 1 μg/ml complete ovalbumin (OVA). After 16 hours, cells were washed twice and 2.5×10^4 MDSC co-cultured with 1×10^5 CFSE-labeled naïve CD8^+ T cells from spleens of OT-I mice (ratio 0.25:1). Positive controls included co-cultures of OT-I T cells with GM-CSF plus IL-4-derived BM-DCs loaded with 1 μg/ml complete OVA. For TME cross-priming assays, 1.25×10^4 MDSC from Pan02-Ova-ZsGreen tumors were co-cultured with 5×10^4 naïve CD8^+ T cells (1/4:1) from spleens of OT-I mice and labelled with Cell-trace violet. Positive control wells included OT-I T cells co-cultured with GM-CSF plus IL-4-derived BM-DCs loaded with 1 μg/ml OVA257-264 peptide. T cell proliferation was measured after 3 days of co-culture.

[16] = LLC, SFRN 25 mg/kg i.p., 3 days per week
[17] = mice treated with TUDCA vs controls
[18] = BM-MDSC, Thaps 200 nM, last 24 hours
[19] = LLC-bearing mice, Thaps 100 μg/kg i.p. vs vehicle

Cn1cc(-c2ccc3c(c2)CCN3C(=O)Cc2cccc(C(F)(F)F)c2)c2c(N)ncnc21 [GSK-2606414]
frequency of IFNγ-producing CD8+ T cells in tumors ([1]; B16, GSK2606414 25 mg/kg or AMG-44 12 mg/kg, 17 days post-tumor injection): amplified the frequency of IFNγ-producing CD8^+ T cells in tumors
tumor growth ([2]; B16-bearing mice, GSK-2606414 25 mg/kg i.p. daily vs vehicle): Delayed tumor growth
tumor growth ([2]; B16, daily i.p. GSK2606414 25 mg/kg or AMG-44 12 mg/kg from day 7): delayed tumor growth
immunoinhibitory activity of MDSC ([3]; MDSC from tumors of GSK-2606414 treated B16-bearing mice): lower immunoinhibitory activity of MDSC
glucose levels in the serum [4]: failed to show alterations in glucose levels
hyperglycemia at high doses ([5]; 150 mg/kg, orally twice a day, previous studies): induced hyperglycemia
limitation for therapeutic use ([5]; Yu et al., 2015): induction of hyperglycemia as a result of pancreatic islet degeneration

Oc1ccc(C=Cc2cc(O)cc(O)c2)cc1 [Resveratrol]
potential of Thaps-treated Eif2ak3^KO-Tek BM-MDSC to impair T cell proliferation [6]: partially restored the potential

C[S+]([O-])CCCCN=C=S (stereo not drawn) [SFRN, Sulforaphane]
ROS levels and immunoregulatory potential of control MDSC ([3]; LLC-bearing Eif2ak3^Flox mice treated with SFRN): without affecting controls
immunoregulatory potential of tumor Eif2ak3^KO-Lyz2 MDSC ([3]; LLC-bearing mice treated with SFRN, 1:1/4): restored the immunoregulatory potential
potential of Thaps-treated Eif2ak3^KO-Tek BM-MDSC to impair T cell proliferation [6]: partially restored the potential
OCR of tumor-MDSC [7]: elevated OCR
Ifnβ1 mRNA in tumor-MDSC from Eif2ak3^KO-Lyz2 mice [8]: reduced Ifnβ1 mRNA levels
ROS levels in tumor Eif2ak3^KO-Lyz2 MDSC [9]: reduced ROS levels
anti-tumor effects found in Eif2ak3^KO-Lyz2 mice [10, 16]: disabled the anti-tumor effects
tumor progression in Eif2ak3^Flox mice [10, 16]: delaying tumor progression

C[C@H](CCC(=O)NCCS(=O)(=O)O)[C@H]1CC[C@H]2[C@@H]3[C@@H](O)C[C@@H]4C[C@H](O)CC[C@]4(C)[C@H]3CC[C@]12C [TUDCA, Tauroursodeoxycholic acid]
levels of Arginase I in tumor-MDSC [11]: reduced levels of the inhibitory factor Arginase I
expression of phospho-PERK in tumor-MDSC [12, 17]: lower expression of phospho-PERK
expansion of recently activated CD69+ CD44+ CD8+ T cells in tumors ([1]; B16-bearing mice treated with TUDCA): Higher expansion
EGSRNQDWL-H-2D^b-tetramer+ CD8+ T cells recognizing gp100 ([1]; B16-bearing mice, single treatment): promoted the spontaneous expansion
recently activated CD69+ CD44+ CD8+ T cells ([1]; B16-bearing mice, single treatment (anti-Gr1 experiment)): promoted the spontaneous expansion
expansion of recently activated CD69+ CD44+ CD8+ T cells in tumors ([1]; LLC-bearing mice treated with TUDCA): Higher expansion
tumor growth ([2]; established B16 tumors, TUDCA 250 mg/kg daily after day 6 vs vehicle): delayed tumor growth
ability to block T cell proliferation ([13]; human BM-MDSC conditioned with hTES, TUDCA in culture): impaired the ability
expression of phospho-IRE1α in tumor-MDSC [14, 17]: lower expression of phospho-PERK and phospho-IRE 1α
ability to block T cell proliferation ([3]; LLC tumor-MDSC pre-treated ex vivo with TUDCA for 24 hours): impaired the ability
ability of tumor-MDSC to block T cell proliferation ([3]; tumor-MDSC (1:1/4) from LLC or B16 bearing mice treated with TUDCA vs vehicle): lower ability to block T cell proliferation
ability to block T cell proliferation ([6]; murine BM-MDSC developed after exposing BM-iMC to TES, TUDCA in culture): impaired the ability
capacity of tumor-MDSC to prime OT-I T cell proliferation [15]: higher capacity to prime OT-I T cell proliferation
expression of SIINFEKL-bound H-2K^b in tumor-MDSC [15]: heightened expression
anti-tumor actions in immunodeficient Rag1^KO mice ([10]; LLC tumors, TUDCA, Rag1^KO vs wild type mice): not found
tumor growth ([10]; established LLC tumors, TUDCA 250 mg/kg daily after day 6 vs vehicle): delayed tumor growth

C/C=C(/C)C(=O)O[C@H]1C(C)=C2[C@H]([C@@H]1OC(=O)CCCCCCC)[C@@](C)(OC(C)=O)C[C@H](OC(=O)CCC)[C@@]1(O)[C@H]2OC(=O)[C@@]1(C)O [Thaps, Thapsigargin]
total and phosphorylated PERK [12, 18]: upregulation of total and phosphorylated PERK
ability to block T cell proliferation ([13]; human BM-MDSC, Thaps, last 24 hours): enhanced ability to block T cell proliferation
total and phosphorylated IRE1α [14, 18]: upregulation of total and phosphorylated PERK and IRE1α
immunoregulatory potential of tumor-MDSC ([3]; tumor-MDSC from LLC-bearing mice treated with Thaps): elevated the immunoregulatory potential of tumor-MDSC
ability to block T cell proliferation ([6]; murine BM-MDSC, Thaps 200 nM, last 24 hours): enhanced ability to block T cell proliferation
expansion of splenic-MDSC [10, 19]: increased the expansion of splenic-MDSC
tumor progression [10, 19]: promoted tumor progression
